≈ marks a conversion by molar mass, not a printed value.
Legend:
[1] = system: S. aureus ATCC 13709; assay: MIC, antibacterial potency, S. aureus; format: cell-based; settings: S. aureus
[2] = system: S. pneumoniae ATCC 51916; assay: MIC, S. pneumoniae; format: cell-based; settings: S. pneumoniae

MIC, SA [1]	MIC Spn52 [2]	SMILES
> 64 mg/L	> 64 mg/L	CCOC(=O)c1cnc(Sc2nc(OCC)c3c(Br)c(CC)[nH]c3n2)s1 [700,291]
> 64 mg/L	> 64 mg/L	CCOc1nc(Sc2nc(C(=O)O)co2)nc2[nH]c(CC)c(Br)c12 [700,292]
32 mg/L (≈ 74.5 µM)	32 mg/L (≈ 74.5 µM)	CCOc1nc(Sc2ncc(C(=O)O)s2)nc2[nH]c(CC)c(Br)c12 [700,293]
> 64 mg/L	> 64 mg/L	CCOc1nc(Sc2nc(C(=O)N[C@H]3CCOC3=O)co2)nc2[nH]c(CC)c(Br)c12 [700,294]
> 64 mg/L	32 mg/L (≈ 66.6 µM)	CCc1[nH]c2nc(Sc3cccc(NC(=O)OC)c3)nc(NC[C@H](C)O)c2c1Br [700,295]
≤ 0.5 mg/L	2 mg/L (≈ 4.64 µM)	CCOc1nc(Sc2cnc3cccnc3n2)nc2[nH]c(CC)c(Br)c12 [700,297]
2 mg/L (≈ 5.17 µM)	8 mg/L (≈ 20.7 µM)	CCOc1nc(Sc2cnc3cccnc3n2)nc2[nH]c(CC)c(Cl)c12 [700,298]
32 mg/L (≈ 72.6 µM)	> 64 mg/L	CCOc1nc(Sc2nc(C(=O)OC)c(C(C)C)s2)nc2[nH]c(CC)c(Cl)c12 [700,302]
8 mg/L (≈ 18.1 µM)	32 mg/L (≈ 72.6 µM)	CCOc1nc(Sc2nc(C(=O)OC)c(C(C)C)s2)nc2[nH]c(CC)c(Cl)c12 [700,304]
> 64 mg/L	> 64 mg/L	CCOc1nc(Sc2cc(C(=O)NC3CC3)ccn2)nc2[nH]c(CC)c(Cl)c12 [700,306]
4 mg/L (≈ 9.37 µM)	64 mg/L (≈ 150 µM)	CCc1[nH]c2nc(Sc3cccc(CC(=O)O)c3)nc(Cl)c2c1Br [700,307]
64 mg/L (≈ 169 µM)	64 mg/L (≈ 169 µM)	CCOc1nc(Sc2cc(C(=O)O)ccn2)nc2[nH]c(CC)c(Cl)c12 [700,321]
> 64 mg/L	> 64 mg/L	CCc1[nH]c2nc(Sc3nc(C(=O)O)cs3)nc(NC[C@H](C)O)c2c1Cl [700,322]
> 64 mg/L	64 mg/L (≈ 164 µM)	CCOc1nc(Sc2ccc(NC3CC3)nn2)nc2[nH]c(CC)c(Cl)c12 [700,324]
> 64 mg/L	> 64 mg/L	CCNc1ccc(Sc2nc(OCC)c3c(Cl)c(CC)[nH]c3n2)nn1 [700,325]
> 64 mg/L	32 mg/L (≈ 75.7 µM)	CCOc1nc(Sc2ccc(NCCCOC)nn2)nc2[nH]c(CC)c(Cl)c12 [700,326]
32 mg/L (≈ 73.6 µM)	64 mg/L (≈ 147 µM)	CCOc1nc(Sc2ccc(N3CCC(O)CC3)nn2)nc2[nH]c(CC)c(Cl)c12 [700,327]
> 64 mg/L	64 mg/L (≈ 135 µM)	CCc1[nH]c2nc(Sc3nc(C(=O)OC)c(Cl)s3)nc(OCC3CCC3)c2c1Cl [700,328]
8 mg/L (≈ 22.1 µM)	> 64 mg/L	CCOc1nc(Nc2cccnc2)nc2[nH]c(CC)c(Br)c12 [700,331]

MIC, SA [1]	MIC Spn52 [2]	SMILES
> 64 mg/L	> 64 mg/L	CCc1[nH]c2nc(SC)nc(CCC3OCCCO3)c2c1Br [700,332]
> 64 mg/L	> 64 mg/L	CCc1[nH]c2nc(SC)nc(CCCNCCN3CCOCC3)c2c1Br [700,334]
> 64 mg/L	> 64 mg/L	CCOc1nc(Sc2nc(OC)c3cccnc3n2)nc2[nH]c(CC)c(Cl)c12 [700,339]
> 64 mg/L	> 64 mg/L	CCOc1nc(Sc2ncc3cccnc3n2)nc2[nH]c(CC)c(Cl)c12 [700,341]
> 64 mg/L	> 64 mg/L	CCc1[nH]c2nc(Sc3nc(C(=O)O)cs3)nc(NCCCNS(C)(=O)=O)c2c1Cl [700,342]
≤ 0.5 mg/L	≤ 0.5 mg/L	CCc1[nH]c2nc(Sc3cnc4cccnc4n3)nc(N3CC(O)C3)c2c1Br [700,346]
1 mg/L (≈ 2.72 µM)	8 mg/L (≈ 21.7 µM)	CCOc1nc(Sc2cc(=O)[nH]c(=O)[nH]2)nc2[nH]c(CC)c(Cl)c12 [700,347, 6-(5-chloro-4-ethoxy-6-ethyl-7H-pyrrolo[2,3-d]pyrimidin-2-ylthio)pyrimidine-2,4(1H,3H)-dione]
> 64 mg/L	> 64 mg/L	Cc1[nH]c2nc(Sc3cnc4cccnc4n3)nc(N3CC(O)C3)c2c1C [700,351]
> 64 mg/L	> 64 mg/L	CCc1[nH]c2nc(Sc3nc4ncccc4c(=O)[nH]3)nc(N3CC(O)C3)c2c1Cl [700,353]
> 64 mg/L	> 64 mg/L	CCc1[nH]c2nc(Sc3nc4ncccc4c(=O)[nH]3)nc(N3CC(O)C3)c2c1Br [700,358]
≤ 0.5 mg/L	2 mg/L (≈ 4.55 µM)	CCc1[nH]c2nc(Sc3cc(=O)[nH]c(=O)[nH]3)nc(N3CC(O)C3)c2c1Br [700,360]
> 64 mg/L	> 64 mg/L	Cc1[nH]c2nc(Sc3cc(=O)[nH]c(=O)[nH]3)nc(N3CC(O)C3)c2c1Br [700,362]
> 64 mg/L	> 64 mg/L	CCc1[nH]c2nc(Sc3cc(-n4cccn4)nc(C)n3)nc(NCC3CCCO3)c2c1Cl (stereo not drawn) [700,373]
> 64 mg/L	> 64 mg/L	CCc1[nH]c2nc(Cn3cncn3)nc(N3CCN(C(C)=O)CC3)c2c1Br [700,374]
≤ 0.5 mg/L	8 mg/L (≈ 15.2 µM)	CCOC(=O)Cn1c(=O)cc(Sc2nc(N3CC(O)C3)c3c(Br)c(CC)[nH]c3n2)[nH]c1=O [700,386, Ethyl 2-(4-(5-bromo-6-ethyl-4-(3-hydroxyazetidin-1-yl)-7H-pyrrolo[2,3-d]pyrimidin-2-ylthio)-2,6-dioxo-2,3-dihydropyrimidin-1 (6H)-yl)acetate]
> 64 mg/L	> 64 mg/L	CCc1[nH]c2nc(Sc3nc(C(=O)O)c(Cl)s3)nc(N3CC(O)C3)c2c1Br [700,391]
≤ 0.5 mg/L	≤ 0.5 mg/L	CCc1[nH]c2nc(Sc3cnc4nccnc4c3)nc(N3CC(O)C3)c2c1Br [700,392]
≤ 0.5 mg/L	1 mg/L (≈ 2.42 µM)	CCc1[nH]c2nc(Sc3cnc4nccnc4c3)nc(N3CC(O)C3)c2c1Cl [700,393]

More lines, now with the values behind:

SMILES	MIC, SA [1]	MIC Spn52 [2]
CCc1[nH]c2nc(Sc3cccc(CC(=O)OC)c3)nc(Cl)c2c1Br [700,296]	> 64 mg/L	64 mg/L (≈ 145 µM)
CCOc1nc(Sc2nc(C(=O)OC)c(C(C)C)s2)nc2[nH]c(CC)c(Br)c12 [700,301]	64 mg/L (≈ 132 µM)	> 64 mg/L
CCOc1nc(Sc2nc(C(=O)O)c(C(C)C)s2)nc2[nH]c(CC)c(Br)c12 [700,303]	4 mg/L (≈ 8.49 µM)	32 mg/L (≈ 67.9 µM)
CCOc1nc(Sc2cc(C(=O)NC3CC3)ccn2)nc2[nH]c(CC)c(Br)c12 [700,305]	> 64 mg/L	> 64 mg/L
Fc1ccc(Oc2nc(Nc3cccnc3)nc3[nH]cc(Br)c23)c(F)c1.O=C(O)C(F)(F)F [700,315]	16 mg/L	64 mg/L
CCc1[nH]c2nc(Sc3nc(C(=O)O)cs3)nc(N3CC(Cc4c(Cl)ncnc4Cl)C3)c2c1Cl.O=C(O)C(F)(F)F [700,317]	> 64 mg/L	> 64 mg/L
CCc1[nH]c2nc(Sc3nc(C(=O)O)cs3)nc(N3CC(Cc4cncnc4)C3)c2c1Cl.O=C(O)C(F)(F)F [700,318]	> 64 mg/L	> 64 mg/L
CCc1[nH]c2nc(Sc3nc(C(=O)OC)cs3)nc(Cl)c2c1Cl [700,320]	> 64 mg/L	> 64 mg/L
CCc1[nH]c2nc(Sc3nc(C(=O)O)cs3)nc(NCCCn3ccnc3)c2c1Cl [700,323]	> 64 mg/L	> 64 mg/L
CCc1[nH]c2nc(Sc3nc(C(=O)O)cs3)nc(N3CC(F)(F)C3)c2c1Cl.O=C(O)C(F)(F)F [700,338]	8 mg/L	64 mg/L
CCc1[nH]c2nc(Sc3nc(C(=O)O)cs3)nc(N3CC(O)C3)c2c1Cl [700,340]	> 64 mg/L	> 64 mg/L
CCc1[nH]c2nc(Sc3nc(C(=O)O)cs3)nc(NCCCNC(=N)N)c2c1Cl.O=C(O)C(F)(F)F [700,343]	> 64 mg/L	> 64 mg/L
CCc1[nH]c2nc(Sc3cnc4cccnc4n3)nc(N3CC(O)C3)c2c1Cl [700,345]	≤ 0.5 mg/L	2 mg/L (≈ 4.83 µM)
CCOc1nc(Nc2nc(C(=O)O)cs2)nc2[nH]c(CC)c(Br)c12.O=C(O)C(F)(F)F [700,350]	32 mg/L	64 mg/L
CCOc1nc(Nc2cccc(C(=O)O)c2)nc2[nH]c(CC)c(Br)c12.O=C(O)C(F)(F)F [700,354]	2 mg/L	> 64 mg/L
CCc1[nH]c2nc(Sc3nc(-c4nnn[nH]4)cs3)nc(N3CC(O)C3)c2c1Cl.Cl.Cl.Cl.Cl [700,355]	> 64 mg/L	> 64 mg/L
CCc1[nH]c2nc(Sc3nc(C(=O)O)cs3)nc(N3CCN(C(C)=O)CC3)c2c1Cl.O=C(O)C(F)(F)F [700,356]	> 64 mg/L	> 64 mg/L
CCc1[nH]c2nc(Sc3nc(C(=O)O)cs3)nc(N3CCC(=O)C3)c2c1Cl.O=C(O)C(F)(F)F [700,357]	> 64 mg/L	> 64 mg/L
CCc1[nH]c2nc(Sc3cc(=O)[nH]c(=O)[nH]3)nc(N3CC(O)C3)c2c1Cl [700,359]	2 mg/L (≈ 5.07 µM)	8 mg/L (≈ 20.3 µM)
CCOc1nc(Nc2cnc3ccccc3c2)nc2[nH]c(CC)c(Br)c12.O=C(O)C(F)(F)F [700,363]	> 64 mg/L	> 64 mg/L
CCc1[nH]c2nc(Sc3nc(C(=O)NOC)cs3)nc(N3CCN(C(C)=O)CC3)c2c1Cl.O=C(O)C(F)(F)F [700,364]	32 mg/L	> 64 mg/L
CCc1[nH]c2nc(Sc3nc(C(=O)N4CCOCC4)cs3)nc(N3CCN(C(C)=O)CC3)c2c1Cl.O=C(O)C(F)(F)F [700,365]	> 64 mg/L	> 64 mg/L
CCOc1nc(Nc2cnc3cccnc3n2)nc2[nH]c(CC)c(Br)c12.Cl.Cl [700,378]	> 64 mg/L	> 64 mg/L
CCOc1nc(Nc2cnc3c(cnn3C(C)C)c2)nc2[nH]c(CC)c(Br)c12.O=C(O)C(F)(F)F [700,381]	1 mg/L	8 mg/L
CCc1[nH]c2nc(Nc3cnc4c(cnn4C(C)C)c3)nc(N3CC(O)C3)c2c1Br [700,385]	8 mg/L (≈ 17 µM)	> 64 mg/L
CCc1[nH]c2nc(Sc3nc(-c4nnc(C)o4)cs3)nc(N3CC(O)C3)c2c1Cl.Cl.Cl.Cl [700,387]	16 mg/L	> 64 mg/L
CCOc1nc(Nc2ccc3cccnc3c2)nc2[nH]c(CC)c(Br)c12.O=C(O)C(F)(F)F [700,388]	4 mg/L	16 mg/L
CCOc1nc(Nc2cc(OC)c(OC)c(OC)c2Br)nc2[nH]c(CC)c(Br)c12.O=C(O)C(F)(F)F [700,389]	> 64 mg/L	> 64 mg/L
CCc1[nH]c2nc(Sc3cnc4cccnc4n3)nc(N3CC(NC(=O)OCc4ccccc4)C3)c2c1Br [700,390]	≤ 0.5 mg/L	≤ 0.5 mg/L
